Like-named read-outs stand apart in the source and are kept apart here.
Columns and labels:
[1] = system: influenza B (B/Ned/537/05); test: Antiviral CPE reduction assay, influenza B in MDCK cells; format: cell-based, influenza B virus; settings: Influenza B virus, MDCK, read-out: Antiviral Activity (EC50) Influenza B
[2] = in vitro; settings: African green monkey
[3] = system: HCoV-229E; test: Antiviral CPE reduction assay, HCoV-229E in HEL299 cells; format: cell-based, human coronavirus 229E; settings: Human coronavirus 229E, HEL 299, MTS, mean ± SD of two or three independent experiments
[4] = in vitro; settings: dog
[5] = system: HCoV-OC43; test: Antiviral CPE reduction assay, HCoV-OC43 in HEL299 cells; format: cell-based, human coronavirus OC43; settings: Betacoronavirus 1, OC43, HEL 299, MTS, mean ± SD of two or three independent experiments
[6] = system: influenza A/H3N2 (A/HK/7/87); test: Antiviral CPE reduction assay, influenza A/H3N2 in MDCK cells; format: cell-based, influenza A virus; settings: Influenza A virus, read-out: Antiviral Activity (EC50) Influenza H3N2
[7] = system: respiratory syncytial virus A (RSV A Long); test: Antiviral CPE reduction assay, RSV A Long in Hep2 cells; format: cell-based; settings: human respiratory syncytial virus
[8] = system: influenza A/H1N1 (A/Ned/378/05); test: Antiviral CPE reduction assay, influenza A/H1N1 in MDCK cells; format: cell-based, influenza A virus; settings: Influenza A virus, read-out: Antiviral Activity (EC50) Influenza H1N1
[9] = system: yellow fever virus (YFV 17D); test: microbe, parasite or virus in culture; format: cell-based; settings: Yellow fever virus, Vero C1008, read-out: Antiviral activity (EC50) YFV 17D
[10] = system: HCoV-NL63; test: Antiviral CPE reduction assay, HCoV-NL63 in Hep3B cells; format: cell-based, human coronavirus NL63; settings: Human coronavirus NL63, MTS, mean ± SD of two or three independent experiments
[11] = system: Zika virus (ZikV mr766); test: Antiviral CPE reduction assay, Zika virus mr766 in VeroE6 cells; format: cell-based; settings: Zika virus, Vero C1008, MTS, mean ± SD, no unit printed on the supplement page (Table 2 of the same screen is in µM)
[12] = system: Z-138 (non-Hodgkin lymphoma); test: MTS proliferation assay, Z-138; settings: Homo sapiens, Z-138, 72 h, read-out: Anti-Proliferative Activity (IC50) Z-138
[13] = system: K-562 (chronic myeloid leukemia); test: MTS proliferation assay, K-562; settings: Homo sapiens, K562, 72 h, read-out: Anti-Proliferative Activity (IC50) K-562
[14] = in vitro; settings: human
[15] = system: DND-41 (acute lymphoblastic leukemia); test: MTS proliferation assay, DND-41; settings: Homo sapiens, DND41, 72 h, read-out: Anti-Proliferative Activity (IC50) DND-41
[16] = in vitro; settings: human; remark: listed apart in the source
[17] = system: herpes simplex virus-1 (HSV-1 KOS); test: Antiviral CPE reduction assay, HSV-1 KOS in HEL299 cells; format: cell-based; settings: Human alphaherpesvirus 1, HEL 299, MTS, mean ± SD, no unit printed on the supplement page (Table 2 of the same screen is in µM)
[18] = system: HCT-116 (colorectal carcinoma); test: MTS proliferation assay, HCT-116; settings: Homo sapiens, HCT-116, 72 h, read-out: Anti-Proliferative Activity (IC50) HCT-116
[19] = system: NCI-H460 (lung carcinoma); test: MTS proliferation assay, NCI-H460; settings: Homo sapiens, NCI-H460, 72 h, read-out: Anti-Proliferative Activity (IC50) NCI-H460
[20] = system: Capan-1 (pancreatic adenocarcinoma); test: MTS proliferation assay, Capan-1; settings: Homo sapiens, CAPAN-1, 72 h, read-out: Anti-Proliferative Activity (IC50) Capan-1
[21] = system: HL-60 (acute myeloid leukemia); test: MTS proliferation assay, HL-60; settings: Homo sapiens, HL-60, 72 h, read-out: Anti-Proliferative Activity (IC50) HL-60
[22] = system: LN-229 (glioblastoma); test: MTS proliferation assay, LN-229; settings: Homo sapiens, LN-229, 72 h, read-out: Anti-Proliferative Activity (IC50) LN-229
[23] = in vitro; settings: human; remark: listed apart in the source
[24] = HEp-2, read-out: Antiviral Activity (EC50) RSV A Long
[25] = H3N2, MDCK cells, CPE reduction, MTS, mean ± SD of two or three independent experiments
[26] = HEp-2, Hep2 cells, CPE reduction, MTS, mean ± SD of two or three independent experiments, read-out: Antiviral Activity (EC50) RSV A Long
[27] = H1N1, MDCK cells, CPE reduction, MTS, mean ± SD of two or three independent experiments

Structure (SMILES) | EC50 [1] [µM] | CC50 [2] [µM] | EC50 [3] [µM] | CC50 [4] [µM] | EC50 [5] [µM] | EC50 [9] [µM] | EC50 [10] [µM] | EC50 [11] [µM] | IC50 [12] [µM] | IC50 [13] [µM] | IC50 [15] [µM] | EC50 [17] [µM] | IC50 [18] [µM] | EC50 [6, 25] [µM] | EC50 [7, 26] [µM] | IC50 [19] [µM] | EC50 [8, 27] [µM] | IC50 [20] [µM] | IC50 [21] [µM] | IC50 [22] [µM] | further results
NC(=O)c1ncn([C@@H]2O[C@H](CO)[C@@H](O)[C@H]2O)n1 [Ribavirin, ribavirin, reference compound] | 7.4 ± 0.8 | > 250 | 38.9 ± 1.7 | > 250 | 100 ± 19 | 24.5 | 39.9 ± 7.1 | 104 |  |  |  |  |  |  |  |  |  |  |  |  | EC50 ([6]; H3N2, MDCK): 7.2 ± 1.6 µM; EC50 [7, 24]: 35.9 ± 1.3 µM; EC50 ([8]; H1N1, MDCK): 9.6 ± 1 µM
CN(C)CCNc1ncc2c(Nc3cccc4c3CCC4)ncnc2n1 [Compound 7e, N^5-(2,3-dihydro-1H-inden-4-yl)-N^2-(2-(dimethylamino)ethyl)pyrimido[4,5-d]pyrimidine-2,5-diamine] | > 50 | > 50 | 20.6 ± 0.3 | > 50 | > 50 | > 50 | > 50 | > 50 | > 100 | > 100 | > 100 | > 50 | > 100 | > 50 | > 50 | > 100 | > 50 | > 100 | > 100 | > 100 | melting point: 180.9 °C; CC50 [14]: > 50 µM; CC50 [16]: > 50 µM; CC50 [23]: > 50 µM
C#Cc1cccc(Nc2ncnc3cc(OCCOC)c(OCCO)cc23)c1 [OSI-420, reference compound] | > 100 | > 100 | > 100 | > 100 | > 100 | > 100 | > 100 | > 100 | > 100 | > 100 | > 100 | > 100 | > 100 |  |  | > 100 |  | 41.7 ± 3.6 | > 100 | > 100 | EC50 ([6]; H3N2, MDCK): > 100 µM; EC50 [7, 24]: > 100 µM; EC50 ([8]; H1N1, MDCK): > 100 µM
C#Cc1cccc(Nc2ncnc3cc(OCCOC)c(OCCOC)cc23)c1 [Erlotinib, erlotinib, reference compound] | > 100 | > 100 | 22.5 ± 10 | > 100 | > 100 | > 100 | > 100 | > 100 | > 100 | > 100 | > 100 | > 100 | > 100 | > 100 | > 100 | > 100 | > 100 | 18.6 ± 1.1 | 10.7 ± 0.1 | > 100 | CC50 [14]: > 100 µM; CC50 [16]: > 100 µM; CC50 [23]: > 100 µM
CC(N)C12CC3CC(CC(C3)C1)C2 (centres unmarked) [Rimantadine, rimantadine, reference compound] | > 100 |  |  | > 100 |  |  |  |  |  |  |  |  |  | 0.6 ± 0.07 |  |  | 1.7 ± 0.5 |  |  |  | 
COc1cc([C@@H]2c3cc4c(cc3[C@@H](O[C@@H]3O[C@@H]5CO[C@@H](C)O[C@H]5[C@H](O)[C@H]3O)[C@H]3COC(=O)[C@H]23)OCO4)cc(OC)c1O [Etoposide, etoposide, reference compound] |  |  |  |  |  |  |  |  | 0.08 ± 0.03 | 6 ± 2 | 0.1 ± 0.02 |  | 1.4 ± 0.09 |  |  | 2.2 ± 0.8 |  | 0.1 ± 0.03 | 0.2 ± 0.01 | 3 ± 0.2 | 
CCC(CC)COC(=O)[C@H](C)N[P@](=O)(OC[C@H]1O[C@@](C#N)(c2ccc3c(N)ncnn23)[C@H](O)[C@@H]1O)Oc1ccccc1 [Remdesivir, remdesivir, reference compound] |  |  | 0.05 ± 0.04 |  | 0.14 ± 0.007 |  | 0.14 ± 0.04 |  |  |  |  |  |  |  | 0.008 ± 0.001 |  |  |  |  |  | CC50 [23]: > 10 µM
CC(=O)N[C@H]1[C@H]([C@H](O)[C@H](O)CO)OC(C(=O)O)=C[C@@H]1N=C(N)N [Zanamivir, zanamivir, reference compound] | 0.4 ± 0.01 |  |  | > 100 |  |  |  |  |  |  |  |  |  | 3 ± 0.2 |  |  | 0.6 ± 0.3 |  |  |  | 
C#Cc1cccc(Nc2ncnc3nc(NCCN(CC)CC)ncc23)c1 [Compound 7i, N^2-[2-(diethylamino)ethyl]-N^5-(3-ethynylphenyl)pyrimido[4,5-d]pyrimidine-2,5-diamine] | > 50 | > 50 | 19.3 ± 6.6 | > 50 | ≥ 39.8 | > 50 | > 50 | > 50 | 62.1 ± 0.8 | 51.8 ± 3.5 | 62.6 ± 0.1 | > 50 | > 100 | > 50 | > 50 | > 100 | > 50 | > 100 | > 100 | > 100 | 

Source: PMC11643962, “Exploring 4,7-Disubstituted Pyrimido[4,5-d]pyrimidines as Antiviral and Anticancer Agents” (Molecules, 2024)
